The structures appear in SMILES notation.

Experiment [1] has as its target KRAS protein containing G12D mutation (Homo sapiens (Human), UniProt P01116, G12D). Briefly: SOS-catalyzed nucleotide exchange assay (GNE), TR-FRET. The format is biochemical. As to conditions: biotinylated KRAS G12D, SOS and GTP, 60-minute incubation. The protocol:
Compounds are added to this complex and then after a 60-minute incubation time the mixture is treated with SOS and unlabeled GTP. Small molecule inhibitors stabilize the Bodipy-GDP complex whereas the untreated protein rapidly exchanges Bodipy-GDP for unlabeled GTP resulting in reduced TR-FRET signal.
This solution is referred to as biotinylated KRAS G12D stock solution.
In general terms: TR-FRET usually uses a lanthanide donor and a delayed reading to cut background.

Experiment [2] relates to AsPC-1 cells containing homozygous KRAS-G12D activating mutation. Briefly: Cellular phospho-ERK assay (Examples 1a-106). The format is cell-based. The following applies: Homo sapiens, ASPC1, 2 h, AsPC-1 cells, 2 hours, ratio of p-Erk vs total Erk; read-out: IC50 (nM) pERK (Cell). The text has this:
5% CO? overnight. […] Assay plates were read on a EnVision Multimode Plate Reader (PerkinElmer) and the ratio of p-Erk vs total Erk in each well was used as the final readout.

Experiment [3] concerns the target KRAS G12D / Ras binding domain of C-RAF (Homo sapiens (Human), UniProt P01116, G12D). Briefly: RAS:RAF-RBD binding assay (cRaf), TR-FRET. The following applies: IC50 (nM) (cRaf), biotinylated KRAS G12D, GST-C-RAF RBD.
Protocol: Compounds are added to KRAS and then after a 30-minute incubation time the RAF-RBD and detection antibodies are added. Small molecule inhibitors that block the interaction of c-RAF-RBD prevent generation of a TR-FRET signal.
Biotinylated KRAS G12D protein is diluted to 20 nM in assay buffer (20 mM HEPES pH 7.5, 150 mM sodium chloride, 10 mM magnesium chloride, and 0.01% Tween20).
Each test compound (10 mM stock in DMSO) is diluted in DMSO to make a 10-point, 3-fold dilution series in a 384-well low dead volume microplate (Labcyte, catalog #LP-0200).
Each well of the assay plate receives 5 μL of Biotinylated KRAS G12D assay solution and is incubated at room temperature for 30 minutes. Each well then receives 5 μL of 100 nM GST-C-RAF RBD protein and a 1:100 dilution of both anti-GST-d2 (Cisbio catalog #61GSTDLA) and Streptavidin-Tb cryptate (Cisbio catalog #610SATLA) in assay buffer and the plate is mixed and briefly centrifuged followed by a 60 minute incubation at room temperature.
The apparent effect as a function of compound concentration is fit to a four-parameter logistic equation.

KRAS protein containing G12D mutation, sequence (P01116 other isoform, or with tags, fused parts or gaps G12D (already in the parent)): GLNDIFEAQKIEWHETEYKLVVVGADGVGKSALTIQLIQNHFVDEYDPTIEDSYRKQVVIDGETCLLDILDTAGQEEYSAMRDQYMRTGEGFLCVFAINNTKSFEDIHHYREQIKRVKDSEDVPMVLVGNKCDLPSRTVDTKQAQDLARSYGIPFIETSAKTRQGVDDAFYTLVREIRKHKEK
KRAS G12D / Ras binding domain of C-RAF, sequence (P01116 other isoform, or with tags, fused parts or gaps G12D (already in the parent)): as above

Broadly, the IC50 is the concentration that gives 50% inhibition. Turning to `CN1C[C@H](F)C[C@H]1COc1nc(N2C[C@H]3CC[C@@](C)(C2)N3)c2cc(F)c(-c3cc(O)cc4ccccc34)c(F)c2n1` [Ex 70, 4-(6,8-difluoro-2-(((2S,4R)-4-fluoro-1-methylpyrrolidin-2-yl)methoxy)-4-((1S,5R)-1-methyl-3,8-diazabicyclo[3.2.1]octan-3-yl)quinazolin-7-yl)naphthalen-2-ol], the results for the IC50 in experiment [1], in experiment [2] and in experiment [3] were 43.5 nM, 2330 nM and 5390 nM, respectively.

In the case of `C[C@]12CC[C@H](CN(c3nc(OC[C@@]45CCCN4C[C@H](F)C5)nc4c(F)c(-c5cc(O)cc6cccc(Cl)c56)c(F)cc34)C1)N2` [Ex. 89, 5-chloro-4-(6,8-difluoro-2-(((2R,7aS)-2-fluorotetrahydro-1H-pyrrolizin-7a(5H)-yl)methoxy)-4-((1S,5R)-1-methyl-3,8-diazabicyclo[3.2.1]octan-3-yl)quinazolin-7-yl)naphthalen-2-ol], the IC50 in experiment [1] is 0.565 nM; in experiment [2], 46 nM; in experiment [3], 31.8 nM.

Regarding `CN(C)CC1(COc2nc(N3C[C@H]4CC[C@@](C)(C3)N4)c3nnc(-c4cc(O)cc5ccccc45)cc3n2)CC1` [Ex. 101, 4-(6-((1-((dimethylamino)methyl)cyclopropyl)methoxy)-8-((1S,5R)-1-methyl-3,8-diazabicyclo[3.2.1]octan-3-yl)pyrimido[5,4-c]pyridazin-3-yl)naphthalen-2-ol], the values for the IC50 in experiment [1], in experiment [2] and in experiment [3] were 1020 nM, 42200 nM and 20900 nM, respectively.

Regarding `CN(C)CC1(COc2nc(N3CC4CCC(CC#N)(C3)N4)c3cc(Cl)c(-c4cc(O)cc5ccccc45)c(F)c3n2)CC1` (stereo not drawn) [Example 36, 2-(3-(6-chloro-2-((1-((dimethylamino)meth-yl)cyclopro-pyl)methoxy)-8-fluoro-7-(3-hydroxy-naphthalen-1-yl)quinazolin-4-yl)-3,8-diazabicyclo[3.2.1]oc-tan-1-yl)acetonitrile], the figures for the IC50 in experiment [1], in experiment [2] and in experiment [3] were 4680 nM, 46400 nM and 50000 nM, respectively.

Regarding `CN(C)CC1(COc2nc(N3CC4(C)CCC(C)(C3)N4)c3cc(F)c(-c4cc(O)cc5ccccc45)c(F)c3n2)CC1` [Example 32, 4-(4-(1,5-dimethyl-3,8-diazabicy-clo[3.2.1]octan-3-yl)-2-((1-((dimethyl-amino)methyl)cyclo-propyl)methoxy)-6,8-difluoroquinazolin-7-yl)naphthalen-2-ol], the results for the IC50 in experiment [1], in experiment [2] and in experiment [3] were 64.2 nM, 2260 nM and 1430 nM, respectively.

Regarding `CN(C)CC1(COc2nc(N3C[C@H]4CC[C@@](C)(C3)N4)c3cc(F)c(-c4cc(O)cc5ccccc45)c(F)c3n2)CC1` [Example 21, 4-(2-((1-((dimethyl-amino)methyl)cyclo-propyl)methoxy)-6,8-difluoro-4-((1S,5R)-1-methyl-3,8-diazabicy-clo[3.2.1]octan-3-yl)quinazolin-7-yl)naphthalen-2-ol], the IC50 in experiment [1] is 14.4 nM; in experiment [2] it was 636 nM; in experiment [3] it was 1980 nM.

Turning to `Cc1c(Cl)cc2[nH]ncc2c1-c1c(F)cc2c(N3CC4CCC(C3)N4)nc(OCC3(CN(C)C)CC3)nc2c1F` [Example 58, 1-(1-(((4-(3,8-diazabicyclo[3.2.1]octan-3-yl)-7-(6-chloro-5-methyl-1H-indazol-4-yl)-6,8-difluoroquinazolin-2-yl)oxy)methyl)cyclopropyl)-N,N-dimethylmethanamine], the IC50 turned out to be 256 nM in experiment [1], 5900 nM in experiment [2] and 45300 nM in experiment [3].

As to `CN(C)C[C@@]1(COc2nc(N3C[C@H]4CC[C@@](C)(C3)N4)c3cnc(-c4cc(O)cc5cccc(Cl)c45)c(F)c3n2)CC1(F)F` [Ex. 100, 5-chloro-4-(2-(((R)-1-((dimethylamino)methyl)-2,2-difluorocyclopropyl)methoxy)-8-fluoro-4-((1S,5R)-1-methyl-3,8-diazabicyclo[3.2.1]octan-3-yl)pyrido[4,3-d]pyrimidin-7-yl)naphthalen-2-ol], the IC50 in experiment [1] came to 1.56 nM; in experiment [2], 99.8 nM; in experiment [3] it was 89.9 nM.

For the compound `CN(C)CC1(COc2nc(N3CC4C[C@@H](O)[C@@](C)(C3)N4)c3cc(Cl)c(-c4cc(O)cc5ccccc45)c(F)c3n2)CC1` (stereo in doubt) [Example 43, 3-(6-chloro-2-((1-((dimethylamino)methyl)cyclopropyl)methoxy)-8-fluoro-7-(3-hydroxynaphthalen-1-yl)quinazolin-4-yl)-5-methyl-3,8-diazabicyclo [3.2.1]octan-6-ol], the results for the IC50 in experiment [1], in experiment [2] and in experiment [3] were 74.3 nM, 12600 nM and 2200 nM, respectively.

In the case of `C[C@@]12CC[C@@H](CN(c3nc(OCC4(CN5CC[C@@H](F)C5)CC4)nc4c3CCN(c3cccc5cccc(Br)c35)C4)C1)N2` [compound 94, 7-(8-bromonaphthalen-1-yl)-2-((1-(((R)-3-fluoropyrroli-din-1-yl)methyl)cyclopropyl)methoxy)-4-((1S,5R)-1-methyl-3,8-diazabicyclo[3.2.1]octan-3-yl)-5,6,7,8-tetrahydropyrido[3,4-d]pyrimidine], the IC50 in experiment [1] is 116 nM; in experiment [2] it was 8470 nM; in experiment [3] it was 32900 nM.

For the compound `Oc1cc(-c2c(F)cc3c(N4CC5CC(O)C(C4)N5)nc(OCC4(CN5CCOCC5)CC4)nc3c2F)c2ccccc2c1` (single isomer, unassigned) [Example 16], the results for the IC50 in experiment [1], in experiment [2] and in experiment [3] were 30.2 nM, 5760 nM and 871 nM, respectively.

Source of the values: patent publication US20240239788A1, “SMALL MOLECULE INHIBITORS OF KRAS G12D MUTANT” (Merck Sharp & Dohme LLC, priority 2021, published 2024).
